Assay results reported in the NIST ThermoML archive (doi:10.1016/j.jct.2018.05.016).
± gives the expanded uncertainty stated by the source.

Test: mn = molality of the nth substance listed, in mol/kg
Conditions: 100 kPa, Liquid; for speed of sound: Frequency=3 MHz, Single path-length method; for mass density: Vibrating tube method

OCCO [1,2-ethanediol] + O
Conditions | mass density, m1 = 0.09889 [kg/m3] | mass density, m1 = 0.1989 [kg/m3] | mass density, m1 = 0.2997 [kg/m3] | mass density, m1 = 0.3948 [kg/m3] | mass density, m1 = 0.5016 [kg/m3] | speed of sound, m1 = 0.09889 [m/s] | speed of sound, m1 = 0.1989 [m/s] | speed of sound, m1 = 0.2997 [m/s] | speed of sound, m1 = 0.3948 [m/s] | speed of sound, m1 = 0.5016 [m/s]
293.15 K | 999.06 ± 0.3 | 999.88 ± 0.3 | 1000.68 ± 0.31 | 1001.41 ± 0.31 | 1002.2 ± 0.31 | 1485.3 ± 2 | 1488.3 ± 2 | 1491.2 ± 2 | 1493.9 ± 2 | 1496.8 ± 2
303.15 K | 996.47 ± 0.3 | 997.26 ± 0.3 | 998.03 ± 0.31 | 998.73 ± 0.31 | 999.48 ± 0.31 | 1511.1 ± 2 | 1513.8 ± 2 | 1516.2 ± 2 | 1518.7 ± 2 | 1521.2 ± 2

OCCOCCO [diethylene glycol] + O
Conditions | mass density, m1 = 0.09849 [kg/m3] | mass density, m1 = 0.1974 [kg/m3] | mass density, m1 = 0.295 [kg/m3] | mass density, m1 = 0.4101 [kg/m3] | mass density, m1 = 0.5006 [kg/m3] | speed of sound, m1 = 0.09849 [m/s] | speed of sound, m1 = 0.1974 [m/s] | speed of sound, m1 = 0.295 [m/s] | speed of sound, m1 = 0.4101 [m/s] | speed of sound, m1 = 0.5006 [m/s]
293.15 K | 999.65 ± 0.3 | 1001.03 ± 0.31 | 1002.36 ± 0.31 | 1003.86 ± 0.32 | 1004.99 ± 0.33 | 1487.7 ± 2 | 1493.1 ± 2 | 1498.1 ± 2 | 1504.1 ± 2.1 | 1508.3 ± 2.1
303.15 K | 997.07 ± 0.3 | 998.39 ± 0.31 | 999.64 ± 0.31 | 1001.05 ± 0.32 | 1002.15 ± 0.32 | 1513.1 ± 2 | 1517.6 ± 2 | 1522 ± 2 | 1526.9 ± 2 | 1530.6 ± 2.1

OCC(O)CO [glycerol] + O
Conditions | mass density, 293.15 K [kg/m3] | mass density, 298.15 K [kg/m3] | mass density, 303.15 K [kg/m3] | mass density, 308.15 K [kg/m3] | speed of sound, 293.15 K [m/s] | speed of sound, 298.15 K [m/s] | speed of sound, 303.15 K [m/s] | speed of sound, 308.15 K [m/s]
m1 = 0.01 | 998.45 ± 0.3 | 997.31 ± 0.3 | 995.87 ± 0.3 | 994.25 ± 0.3 | 1483.2 ± 2 | 1497 ± 2 | 1509.3 ± 2 | 1519.9 ± 2
m1 = 0.03 | 998.87 ± 0.3 | 997.71 ± 0.3 | 996.3 ± 0.3 | 994.68 ± 0.3 | 1484 ± 2 | 1497.8 ± 2 | 1510 ± 2 | 1520.6 ± 2
m1 = 0.05 | 999.29 ± 0.3 | 998.12 ± 0.3 | 996.72 ± 0.3 | 995.09 ± 0.3 | 1484.8 ± 2 | 1498.6 ± 2 | 1510.7 ± 2 | 1521.2 ± 2

OCCOCCOCCO [triethylene glycol] + O
Conditions | mass density, m1 = 0.0965 [kg/m3] | mass density, m1 = 0.2002 [kg/m3] | mass density, m1 = 0.292 [kg/m3] | mass density, m1 = 0.3986 [kg/m3] | mass density, m1 = 0.4988 [kg/m3] | speed of sound, m1 = 0.0965 [m/s] | speed of sound, m1 = 0.2002 [m/s] | speed of sound, m1 = 0.292 [m/s] | speed of sound, m1 = 0.3986 [m/s] | speed of sound, m1 = 0.4988 [m/s]
293.15 K | 1000.31 ± 0.31 | 1002.46 ± 0.31 | 1004.29 ± 0.32 | 1006.36 ± 0.34 | 1008.22 ± 0.36 | 1489.9 ± 2 | 1498 ± 2 | 1504.8 ± 2.1 | 1513.1 ± 2.1 | 1520.5 ± 2.2
303.15 K | 997.73 ± 0.31 | 999.86 ± 0.31 | 1001.67 ± 0.32 | 1003.69 ± 0.34 | 1005.54 ± 0.35 | 1514.9 ± 2 | 1521.8 ± 2 | 1528 ± 2.1 | 1535.1 ± 2.1 | 1541.7 ± 2.1

O [water] + OCC(O)CO
m2 = 0
Conditions | speed of sound [m/s]
298.15 K | 1495.9 ± 2
303.15 K | 1508.5 ± 2
308.15 K | 1519.1 ± 2

O [water] + OCCO
Conditions | speed of sound [m/s]
303.15 K, m2 = 0 | 1508.5 ± 2

O [water] + OCCOCCO
Conditions | speed of sound [m/s]
303.15 K, m2 = 0 | 1508.5 ± 2

O [water] + OCCOCCOCCO
Conditions | speed of sound [m/s]
303.15 K, m2 = 0 | 1508.5 ± 2
